Measurements as given in patent US20150247149A1, “Detecting and Treating Liver Damage” (The Regents of the University of California, priority 2012, published 2015).

How the values were obtained:
Assay type in all cases: cell-based, human
[1] = system: HUVECs; test: HUVEC tube formation assay; conditions: supernatants from HepG2/primary rat hepatocytes incubated with FFA up to 24 h; VEGF-A positive control
Experimental: HUVECs (0.5-1×10^5 cells per well) were seeded onto a coated 24-well plate culture dishes with 200 μl/cm2 (thick gel method) of Matrigel (BD, Franklin Lakes, N.J., USA) and cultured in EBM-2 basal medium supplemented with 1.1% of streptomycin and penicillin in the presence of 100 ng/mL of VEGF (Peprotech, Rocky Hill, N.J., USA), hepatocytes-derived MPs, MP-free supernatant or conditioned supernatant collected after 24 hours of treatment with FFAs. In selective studies, a specific inhibitor for RhoA-ROCK (Y27632, 10 μM) was used in association with MPs in the treatment of endothelial cells. For the ex vivo studies, PFP isolated from different groups of mice (chow, HF/HCarb, MCD fed mice and mice injected with control RNA, VNN1 siRNA or PBS as vehicle) were ultracentrifuged at 100,000 g for 1 h at 10° C. to pellet the blood MPs. HUVECs were treated with MPs (or blood pure MPs) and incubated for 5 h at 37° C. Tube formation was investigated by using an inverted microscope at 4× magnification and images were captured. Tube formation image analysis was assessed by using Wimtube software (Wimasis, Munich, Germany) and the values referred to total tube length (pixel) were used for statistical and data analysis.

[2] = system: HUVECs; test: HUVEC migration (Boyden's chamber chemotaxis, wound healing); conditions: supernatants from hepatocytes incubated with FFA up to 24 h; VEGF-A positive control
Experimental: In vitro migration studies have been performed by using human umbilical cell endothelial cells (HUVECs). Wound healing assay was performed to analyze chemokinesis (non-oriented migration) by using collagen-coated 6-well culture plate, where a silicon elastomer (PDMS) strip was placed vertically to the bottom of every well to create the artificial wound. HUVECs were plated and grown until reaching the complete confluence. HUVECs were treated with EBM-2 supplemented with 100 ng/mL of VEGF (Peprotech, Rocky Hill, N.J., USA), hepatocytes-derived MPs, MP-free supernatant or supernatant collected after 24 hours of treatment with FFAs. The strips were removed carefully and migration of cells was detected by a confocal microscope, capturing one picture per field every 10 minutes for 48 hours. Mitomycin (1 μg/ml) was used to inhibit cell proliferation during wound healing assay. Data were analyzed by using Wimscratch software (Wimasis, Munich, Germany) in order to get the total cell-covered area (pixel). Boyden's chamber assay was performed to analyze chemotaxis (oriented migration) by using cell culture inserts 8 μm pore size (Millipore, Billerica, Mass., USA) and 24-well plate. Each well was filled with 500 μl of serum free EBM-2 media in presence or absence of the following chemoattractants: 100 ng/mL VEGF; hepatocytes-derived MPs; MP-free supernatant or conditioned supernatant. The inserts were placed on top of each well and 150 μl of cell suspension (5×10^4 cells) was added. Plates were incubated overnight at 37° C., and then the filters were removed and stained with Vectashield mounting medium with 4′,6-diamino-2-phenylindole (DAPI) (Vector Labs, Burlingame, Calif., USA).
Migrated cells were detected with a fluorescence microscope and number per field of their nuclei was counted. For the ex vivo studies, PFP isolated from different groups of mice (chow, HF/HCarb, MCD fed mice and mice injected with control siRNA, VNN1 siRNA or PBS as vehicle) were ultracentrifuged at 100,000 g for 1 h at 10° C. to pellet the blood MPs.

[3] = system: VNN1; test: VNN1 expression in HepG2 and HepG2-derived MPs (Western blotting, flow cytometry, QPCR); conditions: HepG2 exposed to 0.25 mM FFA
Experimental: HepG2 were trypsinized and 8×10^5 cells were seeded in a 6-well plate. To knockdown VNN1 or PPARα in hepatocytes, HepG2 were incubated with 50 nM of silencing RNA (siRNA) for VNN1 or PPARα and control siRNA (Ctrl siRNA) dissolved in Lipofectamine 2000 (Life Technologies, Carlsbad, Calif., USA). Transfection was performed according to the manufacturer instructions. After 48 h post transfection, cells were treated with 0.25 mM of palmitic acid for 24 h and microparticles were isolated from the supernatant by ultracentrifugation. The efficiency of transfection has been confirmed in hepatocytes and microparticles by Western blotting as described in the “Protein analysis” paragraph. […] In vivo VNN1 knockdown experiments during experimental NASH were assessed by weekly injection of VNN1 stealthRNA (Life Technology), control siRNA (Ctrl siRNA) or PBS as vehicle (mock) in C57BL/6 mice fed with the MCD diet for 6 weeks. […]
Tissue (liver, intestine, spleen and kidney) from MCD- and MCS-fed mice (Casp-3−/−, WT, treated with VNN1 siRNA and controls) was homogenized using the FastPrep 24 bead homogenization system. […] The concentration and purity of RNA was assessed by NanoDrop (Thermo Scientific). Quantitative Real time PCR was performed on a BioRad Cycler (BioRad) by using SYBRGreen real time PCR master mix (Kapabiosystem, Woburn, Mass., USA) according to the manufacturer instructions. […]

| Compound | tube formation induced by cell-free supernatants of FFA-treated hepatocytes [1] | endothelial cell oriented (chemotaxis) and non-oriented migration induced by cell-free supernatants of FFA-treated hepatocytes [2] | VNN1 expression in MPs from FFA-treated cells (Western blot) [3] |
| --- | --- | --- | --- |
| CCCCCCCC/C=C\CCCCCCCC(=O)O [oleic acid] | not | not | not |
| CCCCCCCCCCCCCCCC(=O)O [palmitic acid] | marked increase | marked increase | expressed |
